Three molecules from US8987211B2, “Therapeutic peptides and use thereof against huntington's disease” (Centre National de la Recherche Scientifique (CNRS), priority 2011, dated 2015) can be followed below.

Data set [1] deals with GFP-hHtt171aa-136Q (GFP-polyQ-hHtt protein). The experiment in a line: Cotransfection in HeLa cells, polyQ-hHtt aggregation visualised by anti-GFP immunodetection. Conditions: cotransfection of equivalent quantities of vectors, Myc- or Cherry-tagged peptide. Format: cell-based, human. How it is done:
Various peptides contained in the 548aa of the human Huntingtin N-terminal fragment have been cloned by Gateway in expression vectors in pcDNA type cultured HeLa cells. Each peptide was tagged either by Myc or by Cherry at its N-terminal end. These various peptides were tested by cotransfection in HeLa cells in the presence of a pcDNA vector expressing a GFP-polyQ-hHtt protein (see FIG. 5). In these experiments, the polyQ-hHtt protein tested corresponded to an hHtt protein covering 171 aa and containing an extended polyQ with a GFP tag at its N-ter end (GFP-hHtt^171aa-136Q). The HeLa cells were cultured in 6-well boxes and transfected by 1.5 μg of total DNA, using JetPei (Qbiogene) reagent. Equivalent quantities of expression vectors (polyQ protein and peptides) are used for the cotransfections. When necessary, pBluescript is used to balance the quantity of DNA. Aggregation of GFP-hHtt^171aa-136Q is visualised by immunodetection with an anti-GFP antibody (see FIG. 5). This protein forms cytoplasmic aggregates (see FIG. 5A).

Data set [2] deals with GFP-hHtt171aa-136Q aggregates. The data set is described as follows: Quantification of aggregates by filtration, HeLa cells. The class given is cell-based, human. Conditions: cellulose acetate membrane, anti-GFP, FIG. 5B. How it is done: Protein extracts were obtained according to (Sittler et al., Mol Cell. 1998) with the following modifications: after transfection, the cell pellets are treated with DNase and resuspended in 150 μl 1% SDS and 50 mM DTT in PBS. The samples are boiled for 5 minutes. Two 150 μL aliquots corresponding to independent experiments were filtered together and each point was reproduced 3 times.
The samples were filtered on a cellulose acetate membrane ([…], Schleicher and Schuell) using a Biorad Dot-blot apparatus. The membranes were then subjected to immunodetection with an antibody, either anti-GFP polyclonal for the HeLa cells (Invitrogen, 1:5000) or anti-HA polyclonal for the salivary glands (SC805, Santa-Cruz, 1:200) in order to visualise the aggregates The aggregates are then detected using a secondary anti-rabbit antibody coupled with HRP (horseradish peroxidase, Jackson 1:50 000). The immunoreagent spots are detected with an […] substrate (ECL, Roche) and the quantifications carried out using Image J (see FIG. 5B).

The test system of data set [3] is HA-hHtt171aa-136Q protein. The data set is described as follows: polyQ-hHtt aggregation in Drosophila salivary glands (MS1096-Gal4 driver, immunolabelling). Format: in vivo. As to conditions: third instar larvae, anti-HA immunolabel. From the text: The pep4 and pep42 peptides identified as inhibitors of polyQ-hHtt aggregation in HeLa cells were cloned using the Gateway technique in Drosophila pUASt expression vectors, allowing the expression of N-terminal 6Myc- or GFP-tagged peptides.
Transgenic flies expressing these peptides were constructed by injecting vectors in Drosophila embryos. The UAS/Gal4 system (Brand and Perrimon, Development 1993) was used to express these peptides at specific times and in specific tissues, in the presence of an HA- (hemagglutinin) tagged UAS-polyQ-hHtt vector.
The MS1096-Gal4 driver was used to express the HA-hHtt^171aa-136Q protein (detected by an anti-HA antibody) in the salivary glands, in the absence or presence of the GFP-pep42 peptide. […] Salivary glands from dissected third instar larvae were immunolabelled. The glands are fixed for 20 minutes in PBS with 3.7% paraformaldehyde (PFA) and 0.1% Triton then washed in PBS/0.1% Triton. The glands were incubated with the antibodies (anti-HA, then Cy3 conjugate antibody) with 1% BSA.

In data set [4] the test system is UAS-hHtt67aa-98Q or UAS-hHtt548aa-128Q. The experiment in a line: Eye depigmentation and degeneration in flies expressing polyQ-hHtt (gmr-Gal4). The class given is in vivo, Drosophila. Conditions: 10-day old females, 29° C., polyQ-hHtt (67aa or 548aa). How it is done: (§1) The eye depigmentation and degeneration phenotypes are analysed in 10-day old females expressing either UAS-hHtt^67aa-98Q or UAS-hHtt^548aa-128Q controlled by the gmr-Gal4 driver, after transfer at 29° C. from the embryogenesis stage (see FIG. 6b, to be compared with the wild flies shown on FIG. 6a). Flies expressing other genes involved in polyQ diseases (UAS-SCA1-polyQ or UAS-SCA3-polyQ) were also analysed (FIG. 6d).

For data set [5], the system named is UAS-SCA1-polyQ or UAS-SCA3-polyQ. The data set is described as follows: Eye degeneration in flies expressing other polyQ disease genes. The class given is in vivo, Drosophila. How it is done: as §1
The subject of data set [6] is hHtt548aa-128Q protein. The data set is described as follows: Axonal transport, fixed larvae (OK6-Gal4; UAS-NPY-GFP). Format: in vivo, Drosophila. On the procedure: (§2) To test the effect of polyQ-hHtt on axonal transport, the fate of vesicles expressing Neuropeptide Y (NPY) labelled with GFP (NPY-GFP) was monitored, either after dissection and fixation of the larvae, or by real-time microscopy in order to monitor vesicular transport in the motor neurons.
The nervous system of OK6-Gal4 larvae which express vesicles containing NPY-GFP (OK6-Gal4; UAS-NPY-GFP) was dissected and fixed as previously in 3.7% PFA. Incubations with the antibodies and washing are carried out in PBS, 0.3% Triton. Expression of normal Htt^548aa-0Q has no effect on the vesicles which remain numerous and evenly distributed along the axon. Normal Htt, detected by an anti-Htt HU-4C8 antibody (Chemicon, 1:750), lies along the axon and cannot be detected at the neuromuscular junctions (NMJs). Expression of the hHtt^548aa-128Q protein leads to the formation of aggregates along the axons and to abnormal accumulation of the protein at the NMJs. We observe a decrease in the total number of vesicles and their accumulation, especially at the aggregates. In all cases, the vesicles reach the NMJs.

In data set [7] the test system is hHtt548aa-128Q protein. The data set is described as follows: Axonal vesicular transport by real-time microscopy in larva motor neurons. The class given is in vivo, Drosophila. Conditions: segments A3 to A4. On the procedure: as §2
For this examination, OK6-Gal4; UAS-NPY-GFP larvae were anaesthetised with ether for 2 minutes and positioned with the ventral side upwards between slide and slip cover in polymerised 1% agarose, for direct visualisation using fluorescence microscopy with a 63× objective, to monitor the movement of the vesicles between segments A3 and A4. A film of 100 photographs is taken every 280 ms. For each film, 20 vesicles were analysed with Image J (manual vesicle tracking plugin developed by F. Cordelières, Institut Curie, Orsay, France). Vesicles with an instantaneous speed of less than 0.01 μm/s are defined as having paused. The mean speed is calculated as being the total distance traveled irrespective of the vesicle direction (anterograde or retrograde) divided by the total estimated time during which the vesicle is monitored. While expression of the hHtt^548aa-128Q protein leads to an increase in the pause time of vesicles and reduces their speed, the presence of pep42 rescues both the vesicle pause time and speed.

Data set [8] relates to OK6-Gal4; UAS-NPY-GFP; UAS-hHtt548aa-128Q larvae. The experiment in a line: Larval locomotion. Format: in vivo, Drosophila. Conditions: larvae expressing hHtt548aa-128Q.
Data set [9] has as its system GFP-P1 (first 98 aa with no polyQ domain). The experiment in a line: Co-immunoprecipitation in cotransfected HeLa cells. Conditions: Cherry-pep42, GFP-P1, anti-GFP immunoprecipitation. Format: binding, human. How it is done: (§3) This assumption was tested by co-immunoprecipitation experiments using HeLa cells cotransfected by GFP-hHtt^171aa-136Q or by GFP-P1 (corresponding to the first 98 aa with no polyQ domain), in the presence of Cherry-pep42. A G/A-agarose protein resin binding an anti-GFP was used to immunoprecipitate the GFP-hHtt^171aa-136Q protein or the GFP-P1 peptide and to co-immunoprecipitate the Cherry-pep42, visualised by an anti-cherry by western blot.

The next data set relates to GFP-hHtt171aa-136Q. The data set is described as follows: Co-immunoprecipitation in cotransfected HeLa cells. The class given is binding, human. As to conditions: Cherry-pep42, anti-GFP immunoprecipitation, anti-cherry western blot. How it is done: as §3
Data set [10] addresses T1, first 17 amino acids before the polyQ domain of the human Htt protein (Homo sapiens, UniProt P42858).
T1 construct: using the first 17 amino acids before the polyQ domain of the human Htt protein; expressed in transfected cells; host or cells: HeLa cells (inferred from 'the same experiments')
The data set is described as follows: Co-immunoprecipitation with first 17 amino acids of Htt. The class given is binding. How it is done: as §3

For the next data set, the system named is polyQ-hHtt. The data set is described as follows: Viability and survival of adult flies affected by polyQ-hHtt. As to conditions: summary statement, no example. Format: in vivo, Drosophila.
Data set [11] deals with polyQ-hHtt protein, N17 region (the first 17 aa). The data set is described as follows: Interference with nucleation step of polyQ-hHtt aggregation. Further details: species or system human. As to conditions: summary statement, no example.
Another data set deals with GFP-polyQ-hHtt (Q136). The data set is described as follows: Activity in HeLa cells, aggregate percentage by GFP signal. The class given is cell-based, human. As to conditions: increasing quantity of synthetic peptide added to the culture medium, FIG. 7c. From the text: HeLa cells are transfected with: • 1—GFP-polyQ-hHtt (Q136), • 2—GFP-polyQ-hHtt co-transfected with a vector expressing Pep42-TAT, or • 3—GFP-polyQ-hHtt in the presence of an increasing quantity of Pep42-TAT synthetic peptide added to the culture medium.
FIG. 7c corresponds to the aggregate percentage identified by the GFP signal related to the polyQ-hHtt chain, in the presence of an increasing quantity of fusion peptide.

“Also recorded” adds a separate entry of the source. No end group written: not given here.

Sequence of GFP-hHtt171aa-136Q (GFP-polyQ-hHtt protein) (P42858 with tags, fused parts or gaps limits assumed): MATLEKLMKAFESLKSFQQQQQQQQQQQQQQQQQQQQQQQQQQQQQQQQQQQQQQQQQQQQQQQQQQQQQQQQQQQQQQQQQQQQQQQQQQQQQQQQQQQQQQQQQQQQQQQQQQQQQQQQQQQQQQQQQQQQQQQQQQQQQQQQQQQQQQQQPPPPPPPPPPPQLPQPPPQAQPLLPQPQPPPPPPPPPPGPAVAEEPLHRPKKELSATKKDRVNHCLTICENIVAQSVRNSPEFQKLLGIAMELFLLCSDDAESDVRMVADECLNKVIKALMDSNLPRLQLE
Sequence of hHtt548aa-128Q protein (P42858 with tags, fused parts or gaps limits assumed): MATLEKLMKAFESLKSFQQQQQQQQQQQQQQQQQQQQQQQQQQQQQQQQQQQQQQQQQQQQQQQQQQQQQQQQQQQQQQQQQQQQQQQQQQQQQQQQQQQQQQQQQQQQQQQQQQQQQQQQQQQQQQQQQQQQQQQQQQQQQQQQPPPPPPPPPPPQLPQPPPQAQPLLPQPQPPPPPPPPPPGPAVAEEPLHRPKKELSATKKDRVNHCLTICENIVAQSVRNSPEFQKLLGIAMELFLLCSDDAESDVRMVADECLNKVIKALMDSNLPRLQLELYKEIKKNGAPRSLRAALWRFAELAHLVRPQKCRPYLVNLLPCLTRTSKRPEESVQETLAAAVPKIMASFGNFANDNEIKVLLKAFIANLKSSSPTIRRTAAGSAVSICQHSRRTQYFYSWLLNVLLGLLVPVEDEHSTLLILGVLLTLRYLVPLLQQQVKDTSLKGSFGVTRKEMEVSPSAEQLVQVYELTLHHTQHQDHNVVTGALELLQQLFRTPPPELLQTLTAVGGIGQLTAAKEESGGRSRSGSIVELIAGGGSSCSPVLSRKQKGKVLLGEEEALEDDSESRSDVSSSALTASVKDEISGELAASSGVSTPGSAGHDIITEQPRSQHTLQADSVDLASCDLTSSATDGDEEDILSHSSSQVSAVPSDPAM
Sequence of GFP-hHtt171aa-136Q aggregates (P42858 with tags, fused parts or gaps limits assumed): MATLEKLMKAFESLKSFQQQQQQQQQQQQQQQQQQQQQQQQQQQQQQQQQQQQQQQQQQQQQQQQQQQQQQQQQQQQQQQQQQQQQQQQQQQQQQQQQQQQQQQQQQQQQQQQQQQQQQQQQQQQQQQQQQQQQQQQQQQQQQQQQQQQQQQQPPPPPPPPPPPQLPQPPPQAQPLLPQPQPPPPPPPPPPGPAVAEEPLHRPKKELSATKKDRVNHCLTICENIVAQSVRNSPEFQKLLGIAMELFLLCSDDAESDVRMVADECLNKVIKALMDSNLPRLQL
Sequence of GFP-P1 (first 98 aa with no polyQ domain) (P42858 with tags, fused parts or gaps DEL18-38 limits assumed): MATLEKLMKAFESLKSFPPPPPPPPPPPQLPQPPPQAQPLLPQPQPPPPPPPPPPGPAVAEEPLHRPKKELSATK

With “AASSGVSTPGSAGHDIITEQPRS (not fully specified) [pep42, 23 aa peptide contained in pep4, positions 480 to 502 of wild-type hHtt; tested Myc-, Cherry- or GFP-tagged]”, the “aggregation of GFP-hHtt171aa-136Q (polyQ-hHtt) in HeLa cells” value in data set [1] is recorded as “no longer forms aggregates”. Also, the “quantification of aggregates by filtration” value in data set [2] is recorded as “confirmed by quantification”. Also, in [3], the “aggregation of polyQ-hHtt in salivary glands” value is reported as “absence of aggregates”. The “eye depigmentation and degeneration phenotype” value in data set [4] is listed as “normal eyes”. Moreover, the “eye degeneration phenotype, other polyQ genes” value in data set [5] is reported as “Only flies expressing polyQ-hHtt (67aa or 548aa) have normal eyes”. In the data set on hHtt548aa-128Q protein [6], the “accumulation of polyQ-hHtt at the neuromuscular junctions (NMJs)” value is “non-accumulation of polyQ-hHtt at the NMJs”, the “distribution of NPY-GFP vesicles along the axons” value was “better distribution of the vesicles along the axons” and the “size of the polyQ-hHtt aggregates along axons” value is on record as “reduction in the size of the polyQ-hHtt aggregates”. Also, in the data set on hHtt548aa-128Q protein [7], the vesicle mean speed entry is “rescues” and the vesicle pause time result was “rescues”. The “mobility of the larvae” value in [8] is reported as “completely rescued”. In addition, the “interaction with N-terminal fragment lacking polyQ (co-immunoprecipitation)” value in [9] was “this interaction does not require the presence of the polyQ domain”. In addition, the “interaction with Huntingtin N-terminal fragment (co-immunoprecipitation)” value with GFP-hHtt171aa-136Q is “interacts directly with the N-terminal fragment of Huntingtin”. Moreover, the “interaction with first 17 amino acids of Htt (co-immunoprecipitation)” value in data set [10] is on record as “successfully repeated”. Besides, the “viability and survival of adult flies” value in the data set with polyQ-hHtt is “capable of rescuing”. In data set [11], the “first step of aggregation (nucleation)” value is listed as “interferes with the first step of aggregation”.
With “AASSGVSTPGSAGHDIITEQPRSGGYGRKKRRQRRR (Pep42-TAT) [fusion peptide of Pep42 and TAT with 2 glycines inserted between]”, the “aggregate percentage identified by the GFP signal” value in the data set with GFP-polyQ-hHtt (Q136) is given as “decreases significantly; also recorded: protective activity of the fusion peptide is conserved”.

B1: QQLFRTPPPELLQTLTAVGGIGQLTAAKEESGGRSRSGSIVELIAGGG SSCSPVLSRKQKGKVLLGEEEALEDDSESRSDVSSSALTASVKDEISGELAAS SGVSTPGSAGHDIITEQPRSQHTLQADSVDLASCDLTSSATDGDEEDILSHSSS QVSAVPSDPAM (protein)
chain: QQLFRTPPPELLQTLTAVGGIGQLTAAKEESGGRSRSGSIVELIAGGGSSCSPVLSRKQKGKVLLGEEEALEDDSESRSDVSSSALTASVKDEISGELAASSGVSTPGSAGHDIITEQPRSQHTLQADSVDLASCDLTSSATDGDEEDILSHSSSQVSAVPSDPAM
modifications: Pep4
For the molecule B1, the “aggregation of GFP-hHtt171aa-136Q (polyQ-hHtt) in HeLa cells” value in data set [1] is recorded as “proved to be active; also recorded: inhibiting effect of polyQ-hHtt aggregation”. Moreover, in data set [2], the “quantification of aggregates by filtration” value was “confirmed by quantification”. Besides, the “aggregation of polyQ-hHtt in salivary glands” value in data set [3] is on record as “absence of aggregates”.
